Consider one molecule from patent US20240269304A1, “BCL-XL INHIBITOR ANTIBODY-DRUG CONJUGATES AND METHODS OF USE THEREOF” (Novartis AG, priority 2020, published 2024).

One test relates to HPB-ALL (T-ALL). In words: CellTiter-Glo viability 72 h, single agent or 1/1 combination with vincristine, ABT-199 or Compound A2, HPB-ALL (Example 9). The format is cell-based. To be noted: Homo sapiens, HPBALL, single agent or 1/1 combination as labelled. As for the experimental part: (§1) Cell lines were cultured in the media described above at 37° C. in a humidified atmosphere containing 5% CO2. Cells were seeded in 96 well clear bottom plates (96 well clear-bottom, white, Corning reference 3903) and exposed to the payloads or ADCs at single agents or in 1/1 combinations with vincristine, ABT-199 or compound A2 for 72 h (serially diluted; 9 concentrations each, triplicates). Effects of payloads or ADCs on cell viability were assessed after 3 days of incubation at 37° C./5% CO2 by quantification of cellular ATP levels using CellTiter-Glo reagent (Promega Ref: G7571) at 75 μL reagent/well. All the conditions were tested in triplicates. Luminescence was quantified on a multipurpose plate reader. IC50s were calculated using standard four-parametric curve fitting. […] Each experiment was performed at least twice, with results being reproducible.
For orientation: In ATP-based viability assays light output follows the ATP content of the culture.

The test system of the next test is ncih146. The test is described as follows: In vitro ADC activity with combination partners, CellTiter-Glo 5 days, ncih146 (Example 13). The format is cell-based. To be noted: single agent. As for the experimental part: Antibody drug conjugates (ADCs) targeting IgG, B7H3, CD56, DLK1, DLL3, EpCAM, and SEZ6 were tested against cancer cell lines obtained from ATCC (American Type Culture Collection) or from other commercial cell line vendors (cor1279, ncih1436, ncih146, ncih211, ncih524). The cells were cultured in media that is optimal for their growth at 5% CO2, 37° C. in a tissue culture incubator. Prior to seeding for the proliferation assay, the cells were split at least 2 days before the assay to ensure optimal growth density. On the day of seeding, cells were lifted off tissue culture flasks using 0.25% trypsin. Cell viability and cell density were determined using a cell counter (Vi-Cell XR Cell Viability Analyzer, Beckman Coulter). Cells with higher than 85% viability were seeded in white clear bottom 384-well plates (Greiner cat #781098) at a density of 1000 cells per well in 50 μL of standard growth media. Plates were incubated at 37° C. overnight in a tissue culture incubator.
The ADCs were prepared in standard phosphate buffered solution to desired concentrations. A series of 10 dilutions were made for each ADC. The prepared drug treatments were then added to the cells resulting in final concentrations of 300 nM to 0.015 nM. Combination partners (Venetoclax and Topotecan) were added at fixed concentrations. Acoustic transfer devices (Echo525, Echo550, Beckman Coulter) were used to add the ADCs or combination partners to the cells. Each treatment was tested in triplicate assay plates. Plates were incubated at 37° C. overnight or for 5 days in a tissue culture incubator. The ability of the ADCs to inhibit cell proliferation and survival was assessed using the Promega CellTiter-Glo® proliferation assay. Plates were incubated at room temperature for 20 minutes to stabilize luminescent signals prior to reading using a multimode plate reader (Pherastar, BMG). Luminescent counts of untreated cells were taken the day after seeding (Day 0 readings), and after 5 days of treatment (Day 5 readings). The Day 5 readings of the untreated cells were compared to the Day 0 readings. Assays with at least one cell doubling during the incubation period were considered valid. To evaluate the effect of the drug treatments, luminescent counts from wells containing untreated cells (100% viability) were used to normalize treated samples. The concentrations of treatment required to inhibit 50% of cell growth or survival ([…]) were calculated using a four parameter logistic regression equation.

In the next test the test system is H1650 cells. The test is described as follows: CellTiterGlo (CTG) cell viability, 3D, 120 h, H1650 (Example 8). Format: cell-based, human. To be noted: Homo sapiens, NCI-H1650, H1650 3D.
For another test, the system named is ALL-SILL (T-ALL). In words: CellTiter-Glo viability 72 h, single agent or 1/1 combination, ALL-SIL (Example 9). The format is cell-based. To be noted: single agent or 1/1 combination as labelled. In short, it runs like this: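 ALL-SIL cells were incubated with payloads or ADCs, alone or in 1/1 combination, for 3 days at 37° C/5% CO2. Viability was read as cellular ATP by CellTiter-Glo luminescence, in triplicate. IC50s came from four-parameter curve fitting.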

Another test deals with SUDHL8 (DLBCL). In words: CellTiter-Glo viability 72 h, single agent or 1/1 combination, SUDHL8 (Example 9). Format: cell-based. To be noted: Homo sapiens, SU-DHL-8, single agent or 1/1 combination as labelled. How it is done: as §1

pIC50: −log10 of the molar value. Where two headings read alike, the source gives them in different places.

`Cc1c(Nc2nc3ccccc3s2)nnc2c1CCCN2c1ccc(-c2cnn(C[C@]34C[C@]5(C)C[C@](C)(C3)C[C@@](OCCN3CCCC3)(C5)C4)c2C)c(C(=O)O)n1` [P21, 6-[3-(1,3-benzothiazol-2-ylamino)-4-methyl-6,7-dihydro-5H-pyrido[2,3-c]pyridazin-8-yl]-3-[1-[[3,5-dimethyl-7-(2-pyrrolidin-1-ylethoxy)-1-adamantyl]methyl]-5-methyl-pyrazol-4-yl]pyridine-2-carboxylic acid]: the pIC50 (in general, the IC50 on a negative log10 scale, so that one unit is a factor of ten) with HPB-ALL (T-ALL) (mean, read-out: HPB-ALL (T-ALL) IC50 mean) is 9.00; in the test on HPB-ALL (T-ALL) (n1, read-out: HPB-ALL (T-ALL) IC50 n1) it was 8.88; in the test with HPB-ALL (T-ALL) (n2, read-out: HPB-ALL (T-ALL) IC50 n2), 9.16; in the test with H1650 cells (experiment n1, read-out: H1650 3D CTG IC50 n1), 9.51; in the test on H1650 cells (experiment n2, read-out: H1650 3D CTG IC50 n2), 9.43; in the test on H1650 cells (mean of n1 and n2, read-out: H1650 3D CTG IC50 Mean of n1 and n2), 9.47. For the same molecule, the pIC50 in the test on ALL-SILL (T-ALL) (mean, read-out: ALL-SILL (T-ALL) IC50 mean) was 9.20; in the test with ALL-SILL (T-ALL) (n1, read-out: ALL-SILL (T-ALL) IC50 n1) it was 9.40; in the test on ALL-SILL (T-ALL) (n2, read-out: ALL-SILL (T-ALL) IC50 n2), 9.07; with SUDHL8 (DLBCL) (mean, read-out: SUDHL8 (DLBCL) IC50 mean), 9.62; in the test on SUDHL8 (DLBCL) (n1, read-out: SUDHL8 (DLBCL) IC50 n1) it was 9.47; in the test on SUDHL8 (DLBCL) (n2, read-out: SUDHL8 (DLBCL) IC50 n2), 9.85. Further, the GI50 (as a rule, the concentration giving 50% growth inhibition) with ncih146 (Homo sapiens, NCI-H146, 120 h) was determined as 0.000508 µM. For the same molecule, the “GI Amax ncih146” value in the test on ncih146 is reported as −98.38.
